The numbers were not newly measured in patent US20040022740A1, “Macrolide formulations for inhalation and methods of treatment of endobronchial infections” (priority 2003, published 2004), which cites them from elsewhere.

In the case of `CC[C@H]1OC(=O)[C@H](C)[C@@H](O[C@H]2C[C@@](C)(OC)[C@@H](O)[C@H](C)O2)[C@H](C)[C@@H](O[C@@H]2O[C@H](C)C[C@H](N(C)C)[C@H]2O)[C@](C)(O)C[C@@H](C)[C@@H]2N[C@@H](COCCOC)O[C@H]([C@H]2C)[C@]1(C)O` [dirithromycin], the oral bioavailability (in humans) is listed as 10-14%. Further, the “elimination into the feces” value (in vivo) is given as 62-81%.
